For 79 compounds, RP-LC retention time results are on record in the METLIN SMRT retention time set (Domingo-Almenara et al. 2019).

SMILES strings stand for the structures.

This data set is described as follows: gradient 5% acetonitrile 3 min, to 50% in 2 min, to 85% in 15 min, held 3 min, 100 µL/min. The settings on record: column: Zorbax Extend-C18 2.1 x 50 mm; eluents: water / acetonitrile, 0.1% formic acid. An outline of the steps:
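The system's dead and dwell volumes were 40 μL and 900 μL, with a Zorbax Extend-C18 column (2.1 × 50 mm, 1.8 μm) run at 100 μL/min in water and acetonitrile containing 0.1% formic acid each. Pure standards were analyzed in mixtures of ~100 molecules by HPLC–quadrupole time-of-flight mass spectrometry in positive and negative ionization mode. Retention time was assigned from computationally picked, manually inspected adduct peaks.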
The compound `CC(C)CN1C(=O)CSc2cnn(CC(=O)N3CCN(c4ccccc4)CC3)c(=O)c21` yielded an RP-LC retention time of 823 s.

For the compound `Cc1ccc(-c2noc(CN3N=NC4C(=O)N(c5cccc(F)c5)C(=O)C43)n2)cc1C` (centres undefined), the RP-LC retention time amounted to 897 s.

As for `Cc1cccc(NC(=O)Nc2nc(C(=O)NCc3cccs3)cs2)c1`, the RP-LC retention time came out at 794 s.

`CCC1CCCCN1CCNC(=O)c1sc2cccc(F)c2c1OC` (centres undefined): the RP-LC retention time came to 700 s.

The compound `O=C(NCc1[nH]nc2ccccc12)c1cccc(Cl)c1` displayed an RP-LC retention time of 805 s.

In the case of `COc1cccc(Cc2nc(Cn3c(C)nc4ccccc4c3=O)no2)c1`, the RP-LC retention time was 812 s.

As to `O=C(NCCN1CCOCC1)c1cc2n(n1)CCCN(Cc1ccc(Cl)cc1)C2=O`, the RP-LC retention time was determined as 629 s.

As to `Cn1c(=O)c(N2CCN(C(=O)c3ccc(Br)cc3)CC2)nc2cccnc21`, the RP-LC retention time came out at 911 s.

In the case of `Cc1ccc(C(=O)NCCc2c[nH]c3ccc(F)cc23)cc1`, the RP-LC retention time was 841 s.

For the compound `COC(=O)c1cccc(NC(=O)C2CC(=O)N(c3ccc4c(c3)CCN4C(C)=O)C2)c1` (centres undefined), the RP-LC retention time was determined as 687 s.

On to `Cc1ccc(OCC(=O)NC2(c3nc(-c4cccnc4)no3)CCCCC2)cc1`, for which the RP-LC retention time came out at 1010 s.

In the case of `Cc1cc(C(=O)NCc2ccco2)c2c(=O)n(C)c(=O)n(C)c2n1`, the RP-LC retention time turned out to be 663 s.

On to `CC(CCc1ccco1)NC(=O)C1CCc2nc(N3CCCC3)ncc2C1` (centres undefined), for which the RP-LC retention time came to 620 s.

Compound `O=C(NCc1ccc(F)cc1Cl)c1cn2ccccc2n1` had an RP-LC retention time of 708 s.

As to `OC(c1ccc(C(F)(F)F)cc1)c1cccnc1` (centres undefined), the RP-LC retention time came out at 630 s.

`O=C(CSc1ccccn1)Nc1nc(-c2ccccc2)cs1` displayed an RP-LC retention time of 986 s.

In turn, `CCn1c(=O)sc2cc(S(=O)(=O)N3CCC(C(=O)NCCc4ccccc4)CC3)ccc21` yielded an RP-LC retention time of 942 s.

Take `Cc1cccc(NC(=O)CN2CCc3[nH]c4c(C)c(C)ccc4c(=O)c3C2)c1`: the RP-LC retention time turned out to be 626 s.

As to `O=S(=O)(NCc1ccc(F)cc1)c1ccccc1-c1nc(-c2cccc(F)c2)no1`, the RP-LC retention time was 1150 s.

For `CN(C)c1cccc(-c2nc(-c3cn(-c4cccc(F)c4)nn3)no2)c1`, the RP-LC retention time turned out to be 1110 s.

Regarding `O=C1CCN(C(=O)c2ccoc2)CCCCCCN1`, the RP-LC retention time came out at 617 s.

`Cc1cc(F)ccc1NC(=O)C1CCN(S(=O)(=O)c2ccc3[nH]c(=O)ccc3c2)CC1`: the RP-LC retention time amounted to 729 s.

Consider `Cc1nnc(-c2nnc(NC(C)C)c3ccccc23)o1`, for which the RP-LC retention time is 602 s.

In turn, `Cc1cc(C)n2c(Nc3ccc(C(C)C)cc3)c(-c3ccccc3)nc2n1` had an RP-LC retention time of 828 s.

In turn, `Cc1ccc(NC(=O)C2CCCN(c3nc4c(s3)c(C)nn4-c3ccccc3)C2)c(C)c1` (centres undefined) gave an RP-LC retention time of 1200 s.

Take `COc1ccc(-c2ncccc2CNS(=O)(=O)c2ccc(C)cc2C)cc1`: the RP-LC retention time came out at 715 s.

`Cc1ccc(-c2cc3c(=O)n(Cc4nc(-c5ccccc5Br)no4)ncn3n2)c(C)c1`: the RP-LC retention time stood at 1250 s.

In turn, `O=C(Cn1cccc1-c1nnc(C2CCC2)o1)NCc1ccccc1Cl` gave an RP-LC retention time of 907 s.

Consider `COc1cc(OC)cc(-c2noc(Cn3cnc4c(oc5ccccc54)c3=O)n2)c1`, for which the RP-LC retention time was determined as 944 s.

As to `CCOc1nc2ccccc2nc1N1CCCC(C(=O)N2CCc3ccccc3C2)C1` (centres undefined), the RP-LC retention time is 1310 s.

`Cc1cc(Cl)ccc1NC(=O)N1CCC(n2cnnc2C2CC2)C1` (centres undefined) gave an RP-LC retention time of 661 s.

Consider `CCCC(NC(=O)Cc1ccc(OCC)c(OCC)c1)C(=O)Nc1nc2ccccc2[nH]1` (centres undefined), for which the RP-LC retention time came to 1070 s.

As to `Cn1cc(-c2ccncc2)cc1C(=O)N1CCN(c2ccccc2)CC1`, the RP-LC retention time is 624 s.

Consider `CCOc1ccc(-c2nc(C3CC(=O)N(c4ccc(F)c(Cl)c4)C3)no2)cc1OCC` (centres undefined), for which the RP-LC retention time worked out at 1150 s.

Compound `COC(=O)C1=CN(C)c2cc(N3CCC(Cc4ccccc4)CC3)c(F)cc2S1(=O)=O` had an RP-LC retention time of 1100 s.

The compound `CC(C)c1cc(=O)n(CC(=O)Nc2cccc3nsnc23)cn1` returned an RP-LC retention time of 664 s.

Regarding `COc1ccccc1CNC(=O)c1nnc(-c2ccc(S(=O)(=O)N3CCCC3)cc2)o1`, the RP-LC retention time came out at 906 s.

For `CCCN1C(=O)COc2cc(-c3noc(C(=O)NC4CC4)n3)ccc21`, the RP-LC retention time came out at 841 s.

The compound `O=C1CCCc2cc(S(=O)(=O)N3CCC(C(=O)Nc4ccc(F)cc4)CC3)ccc2N1` came in with an RP-LC retention time of 749 s.

For `COc1cn(CC(=O)Nc2ccc(OC(F)(F)F)cc2)c(CO)cc1=O`, the RP-LC retention time was determined as 618 s.

As for `CC(C)NC(=O)C1CCCN(c2nc3ncn(CC(=O)Nc4ccccc4Cl)c(=O)c3s2)C1` (centres undefined), the RP-LC retention time was 741 s.

For `CC(C)(C)c1noc(-c2ccc(-n3cnc(C(=O)NCC4CC4)c3)nc2)n1`, the RP-LC retention time is 896 s.

`CC(C)CCNC(=O)c1c(OCC2CC2)cc(=O)n2c1CCCCC2` showed an RP-LC retention time of 774 s.

In turn, `Cc1ccc(-n2cc3c(c(C(=O)Nc4cccnc4)c2=O)CC(C)(C)CC3=O)cc1` showed an RP-LC retention time of 734 s.

`COC(=O)c1ccc(N2Cc3cc(Cl)ccc3OCC2=O)cc1` returned an RP-LC retention time of 877 s.

On to `O=C(c1ccc(F)cc1)N1CCC(CCNS(=O)(=O)c2cc(F)ccc2F)CC1`, for which the RP-LC retention time came to 870 s.

`CCc1nn2c(CNS(=O)(=O)c3ccccc3CC)c(-c3ccccc3)nc2s1` came in with an RP-LC retention time of 1020 s.

As to `Cc1ccc(CNC(=O)N(C)CC2CCOC2)cc1` (centres undefined), the RP-LC retention time was found to be 575 s.

In the case of `CCCn1c(=O)c(C)nc2cc(-c3noc(-c4ccc(OC)cc4)n3)ccc21`, the RP-LC retention time is 1160 s.

`O=C(c1cc(S(=O)(=O)N2CCCC(C(=O)N3CCCCC3)C2)c[nH]1)N1CCCC1` (centres undefined) displayed an RP-LC retention time of 716 s.

On to `CCOc1ccccc1CNS(=O)(=O)c1ccc(-c2c(C)noc2C)cc1`, for which the RP-LC retention time is 995 s.

`COc1cc(NC(=O)CN2C(=O)CC(c3ccccc3)=Nc3ccccc32)cc(OC)c1` came in with an RP-LC retention time of 973 s.

In turn, `CC(C)(C)c1csc(-c2csc(S(=O)(=O)NCc3ccc(F)cc3)c2)n1` yielded an RP-LC retention time of 1220 s.

As to `COc1cc(OC)cc(-n2nnc(-c3nsc(Nc4ccc(OC)c(OC)c4)n3)c2C)c1`, the RP-LC retention time was determined as 933 s.

Consider `O=C(Nc1ccc(F)cc1)c1ccc(Br)s1`, for which the RP-LC retention time was 935 s.

Consider `CC1(C(=O)NCc2ccccc2)CN(S(C)(=O)=O)CC(=O)N1Cc1ccc(Cl)cc1` (centres undefined), for which the RP-LC retention time is 858 s.

`Cc1cc2n(n1)CCCN2C(=O)CCC(=O)N1CCN(Cc2ccc3c(c2)OCO3)CC1` had an RP-LC retention time of 577 s.

On to `Cc1cc(Cl)ccc1NC(=O)N1CC(Cc2nc(-c3cnccn3)no2)C1`, for which the RP-LC retention time was 754 s.

Regarding `COc1ccc2ncc(S(=O)(=O)c3ccc(C)c(C)c3)c(N3CCN(C)CC3)c2c1`, the RP-LC retention time came to 654 s.

Compound `Cc1ccc(NC(=O)Cn2c(C(C)C)nc3c(c2=O)CCN(Cc2ccccc2)C3)c(C)c1` displayed an RP-LC retention time of 705 s.

For `O=C(Nc1ccccc1)N1CC(c2nc(CCOCC3CCCC3)no2)C1`, the RP-LC retention time came out at 944 s.

`COc1ccc(-c2nc3ncccn3c2Nc2cc(C)ccc2C)cc1` returned an RP-LC retention time of 792 s.

In turn, `COC(=O)c1cc(S(=O)(=O)N2CCCC2C(=O)NCc2ccc(C)cc2)cn1C` (centres undefined) came in with an RP-LC retention time of 939 s.

`COc1ccc(-c2noc(C3(NC(=O)c4ccc(F)c(Cl)c4)CCCCC3)n2)cc1` registered an RP-LC retention time of 685 s.

Consider `COc1cc(OC)cc(-c2noc(-c3nn(-c4ccc(C)cc4)ccc3=O)n2)c1`, for which the RP-LC retention time came out at 916 s.

As for `Cc1ccc(CC(=O)N2CCc3cc(-c4csc(C)n4)ccc32)cc1`, the RP-LC retention time was found to be 1070 s.

Consider `Cc1cc(C)c2c(=O)n(Cc3nc(-c4ccccc4)oc3C)c(=O)n(C)c2n1`, for which the RP-LC retention time was 1160 s.

For the compound `O=C(Nc1cnc(N2CCCCC2)nc1)c1ccc(F)cc1F`, the RP-LC retention time was 934 s.

In turn, `CCc1ccc(N2CC(c3noc(-c4ccc(-c5ccccc5)cc4)n3)CC2=O)cc1` (centres undefined) came in with an RP-LC retention time of 1340 s.

For the compound `Cc1cc(C(=O)NC2CCCCC2)nn1C`, the RP-LC retention time is 755 s.

On to `O=C(Cn1nc2c(Oc3cccc(F)c3)nccn2c1=O)Nc1ccc(F)cc1`, for which the RP-LC retention time was 849 s.

In turn, `COc1cccc(NC(=O)CCC2CCN(c3cc(NC4CC4)ncn3)CC2)c1` yielded an RP-LC retention time of 674 s.

With `O=C(NCCCc1ccccc1)c1ccc2c(c1)N(CC(=O)N1CCCC1)C(=O)CO2`, the RP-LC retention time was determined as 706 s.

Compound `Cc1nn2c(NCc3ccccn3)c3c(nc2c1-c1ccccc1)CCCC3` returned an RP-LC retention time of 602 s.

Regarding `CCn1ncc(Cl)c1C(=O)N1CCCC1c1ccccc1F` (centres undefined), the RP-LC retention time was 922 s.

In turn, `COc1ccc(OCC(=O)N2CCCN(c3cc(=O)n(C(C)C)c(=O)n3C(C)C)CC2)cc1` had an RP-LC retention time of 834 s.

Turning to `Cc1ccc(CNC2=NCCNC23CCN(S(=O)(=O)c2ccccc2C)CC3)cc1`, the RP-LC retention time was 738 s.

Compound `CC(C)N1CCn2c(nc3cc(C(=O)NCc4ccccc4Br)ccc32)C1=O` showed an RP-LC retention time of 731 s.

In turn, `Cc1nn(C)c(C)c1CCN(C)c1ccc(C(=O)O)cc1NC(=O)c1ccc(Cl)cc1` displayed an RP-LC retention time of 780 s.
